Measurements: US8129538B1, “Renin inhibitors” (Takeda Pharmaceutical Company Limited, priority 2007, dated 2012)
pIC50: −log10 of the molar value.

Target: T1, Recombinant human renin (Homo sapiens, UniProt P00797)
T1 construct: isolate the active form (residues 67-406); made in house
T1 sequence (P00797 67-406): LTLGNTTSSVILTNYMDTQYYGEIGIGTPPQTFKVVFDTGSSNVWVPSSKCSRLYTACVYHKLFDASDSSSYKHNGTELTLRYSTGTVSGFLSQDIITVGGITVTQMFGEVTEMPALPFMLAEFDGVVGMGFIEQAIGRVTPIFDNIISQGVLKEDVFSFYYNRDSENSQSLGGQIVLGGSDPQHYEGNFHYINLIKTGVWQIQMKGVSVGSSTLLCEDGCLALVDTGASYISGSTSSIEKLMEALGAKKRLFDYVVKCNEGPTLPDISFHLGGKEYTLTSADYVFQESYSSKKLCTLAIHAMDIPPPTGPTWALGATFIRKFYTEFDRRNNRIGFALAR
Assay: In vitro enzymatic activity assay of renin inhibitors (fluorogenic peptide substrate)
Assay type: biochemical
Settings: recombinant human renin 3 nM, substrate 1 μM, 37° C., pH 7.4, fluorescence; read-out: IC50 of Exemplified Compounds Against Renin
Excerpt: Test compounds in varying concentrations may be reacted with recombinant human renin in the presence of substrate, e.g., QXL520-γ-Abu-Ile-His-Pro-Phe-His-Leu-Val-Ile-His-Thr-Lys (HiLyteFluo488)-Arg-OH (Anaspec, San Jose, Calif.). The reaction can be followed kinetically using fluorescence (excitation λ=485 nm; emission λ=538 nm) Inhibition constants (IC50) may be calculated by non-linear curve fitting of the compound concentrations and fluorescence intensities to the standard IC50 equation.
Solutions of test compounds in varying concentrations (≦2 mM final concentration) are prepared in dimethyl sulfoxide (DMSO) and then diluted into assay buffer comprising 50 mM Hepes, 1 mM EDTA, 1 mM DTT, 0.1 mg/mL BSA, 0.01% Brij35, pH 7.4. Alternatively, the assay can be performed with a high BSA concentration, wherein the buffer contains an additional 2% BSA.
Recombinant human renin (3 nM final concentration) is added to the dilutions and pre-incubated with the compounds for 10 minutes at 37° C. As described in Examples A-C above, human renin can be obtained by expressing preprorenin (residue 1-406) in mammalian cells, treating the prorenin (residues 24-406) contained in the culture supernatant with trypsin, and isolate the active form (residues 67-406). After pre-incubation, the reaction is initiated with 1 μM of substrate QXL520-γ-Abu-Ile-His-Pro-Phe-His-Leu-Val-Ile-His-Thr-Lys (HiLyteFluo488)-Arg-OH (Anaspec, San Jose, Calif.). The final DMSO in the assay is 5%. The total volume of the reaction mixture is 20 μL, which can be placed on Greiner 384-well small volume plates.
Renin activity may be determined via fluorescence (excitation λ=485 nm; emission λ=538 nm), e.g., on a Molecular Devices SPECTROmax GEMINI XPS. The fluorescence
intensity is determined upon the addition of substrate and determined again after incubation at 37° C. for one hour. The fluorescence intensity of a blank (no inhibition) using vehicle alone is also determined. Renin activity is linearly proportional to the change in fluorescence observed (final-initial).
The percent inhibition of renin at a given compound concentration is defined as: 100%×[1−(Fcompound/Fblank)] where Fcompound is the observed fluorescence at a given concentration of test compound and Fblank is the observed fluorescence in the presence of vehicle alone.
The pIC50 value (negative log of the molar concentration of the compound that produces 50% inhibition) of a test compound is calculated by non-linear least squares curve fitting of the equation: Percent Inhibition=100%/(1+(10−pIC50/10 log [I])) to percent inhibition versus compound concentration. The 50% inhibitory concentration (IC50) of a test compound is calculated by raising 10 to the negative pIC50 (10-pIC50).

O=C(C1=C(c2ccc(OCCOc3c(Cl)cccc3Cl)cc2)CCN[C@@H]1CO)N(Cc1cccc(Cl)c1Cl)C1CC1 [Compound 6, (S)-N-cyclopropyl-N-(2,3-dichlorobenzyl)-4-(4-(2-(2,6-dichlorophenoxy)ethoxy)phenyl)-2-(hydroxymethyl)-1,2,5,6-tetrahydropyridine-3-carboxamide]
pIC50: > 7.00

NC[C@H]1NCCC(c2ccc(OCCOc3c(Cl)cccc3Cl)cc2)=C1C(=O)N(Cc1cccc(Cl)c1Cl)C1CC1 [Compound 14, (S)-2-(aminomethyl)-N-cyclopropyl-N-(2,3-dichlorobenzyl)-4-(4-(2-(2,6-dichlorophenoxy)ethoxy)phenyl)-1,2,5,6-tetrahydropyridine-3-carboxamide]
pIC50: 6.00 to 7.00

O=C(C1=C(c2cccc(-c3ccccc3)c2)CCNC1CO)N(Cc1cccc(Cl)c1Cl)C1CC1 (stereo not shown) [Compound 1, 4-(biphenyl-3-yl)-N-cyclopropyl-N-(2,3-dichlorobenzyl)-2-(hydroxymethyl)-1,2,5,6-tetrahydropyridine-3-carboxamide]
pIC50: < 6.00

COCOC[C@H]1NCCC(c2ccc(OCCOc3c(Cl)cccc3Cl)cc2)=C1C(=O)N(Cc1cccc(Cl)c1Cl)C1CC1 [Compound 5, (S)-N-cyclopropyl-N-(2,3-dichlorobenzyl)-4-(4-(2-(2,6-dichlorophenoxy)ethoxy)phenyl)-2-((methoxymethoxy)methyl)-1,2,5,6-tetrahydropyridine-3-carboxamide]
pIC50: > 7.00

O=C(C1=C(c2ccc(O)cc2)CCN[C@@H]1CO)N(Cc1cccc(Cl)c1Cl)C1CC1 [Compound 12, (S)-N-cyclopropyl-N-(2,3-dichlorobenzyl)-2-(hydroxymethyl)-4-(4-hydroxyphenyl)-1,2,5,6-tetrahydropyridine-3-carboxamide]
pIC50: < 6.00

COCOC[C@H]1NCCC(c2cccc(-c3ccccc3)c2)=C1C(=O)N(Cc1cccc(Cl)c1Cl)C1CC1 [Compound 4, (S)-4-(biphenyl-3-yl)-N-cyclopropyl-N-(2,3-dichlorobenzyl)-2-((methoxymethoxy)methyl)-1,2,5,6-tetrahydropyridine-3-carboxamide]
pIC50: 6.00 to 7.00

COCOC[C@H]1NCCC(c2ccc(OCCOc3c(Cl)cc(C)cc3Cl)cc2)=C1C(=O)N(Cc1cccc(Cl)c1Cl)C1CC1 [Compound 10, (S)-N-cyclopropyl-4-(4-(2-(2,6-dichloro-4-methylphenoxy)ethoxy)phenyl)-N-(2,3-dichlorobenzyl)-2-((methoxymethoxy)methyl)-1,2,5,6-tetrahydropyridine-3-carboxamide]
pIC50: > 7.00

Cc1cccc(C)c1OCCOc1ccc(C2=C(C(=O)N(Cc3cccc(Cl)c3Cl)C3CC3)[C@@H](CO)NCC2)cc1 [Compound 7, (S)-N-cyclopropyl-N-(2,3-dichlorobenzyl)-4-(4-(2-(2,6-dimethylphenoxy)ethoxy)phenyl)-2-(hydroxymethyl)-1,2,5,6-tetrahydropyridine-3-carboxamide]
pIC50: > 7.00

O=C(C1=C(c2ccc(OCCOc3ccccc3Cl)cc2)CCNC1CO)N(Cc1cccc(Cl)c1Cl)C1CC1 (stereo not shown) [Compound 2, 4-(4-(2-(2-chlorophenoxy)ethoxy)phenyl)-N-cyclopropyl-N-(2,3-dichlorobenzyl)-2-(hydroxymethyl)-1,2,5,6-tetrahydropyridine-3-carboxamide]
pIC50: < 6.00

O=C(C1=C(c2ccc(OCCOc3c(F)ccc(F)c3Cl)cc2)CCN[C@@H]1CO)N(Cc1cccc(Cl)c1Cl)C1CC1 [Compound 11, (S)-4-(4-(2-(2-chloro-3,6-difluorophenoxy)ethoxy)phenyl)-N-cyclopropyl-N-(2,3-dichlorobenzyl)-2-(hydroxymethyl)-1,2,5,6-tetrahydropyridine-3-carboxamide]
pIC50: > 7.00

COCOC[C@H]1NCCC(c2ccc(OCCOc3c(C)cccc3C)cc2)=C1C(=O)N(Cc1cccc(Cl)c1Cl)C1CC1 [Compound 8, (S)-N-cyclopropyl-N-(2,3-dichlorobenzyl)-4-(4-(2-(2,6-dimethylphenoxy)ethoxy)phenyl)-2-((methoxymethoxy)methyl)-1,2,5,6-tetrahydropyridine-3-carboxamide]
pIC50: > 7.00

Cc1cc(Cl)c(OCCOc2ccc(C3=C(C(=O)N(Cc4cccc(Cl)c4Cl)C4CC4)[C@@H](CO)NCC3)cc2)c(Cl)c1 [Compound 9, (S)-N-cyclopropyl-4-(4-(2-(2,6-dichloro-4-methylphenoxy)ethoxy)phenyl)-N-(2,3-dichlorobenzyl)-2-(hydroxymethyl)-1,2,5,6-tetrahydropyridine-3-carboxamide]
pIC50: > 7.00

COc1ccc(C2=C(C(=O)N(Cc3cccc(Cl)c3Cl)C3CC3)[C@@H](CO)NCC2)cc1 [Compound 13, (S)-N-cyclopropyl-N-(2,3-dichlorobenzyl)-2-(hydroxymethyl)-4-(4-methoxyphenyl)-1,2,5,6-tetrahydropyridine-3-carboxamide]
pIC50: < 6.00
